Entries after “also recorded” stand apart in the source; their conditions may differ.
Tests used:
[1] = tested on: LTB4; experiment: Exposure-response analysis: estimated reduction in stimulated LTB4 by DG-031 daily dose; assay type: in vivo, human; details: for Estimated Percent LTB4 Reduction by DG-031 Daily Dose, Mean: stimulated LTB4, mean model prediction from studies DG-031-201 and DG-031-203
Method: Administration of DG-031 500 mg BID reduced LTB4 levels to the target 35% reduction, as measured in the ionophore-stimulation assay described in Example 1. The estimated DG-031-induced reduction in stimulated LTB4 levels was based on all the relevant data observed in the DG-031-201 and DG-031-203 studies. The control baseline was 7.8%. The data presented in Table 14 are the mean and the 5th and 95th percentiles based on the mean model prediction (the 90% confidence interval on the estimated LTB4 response).
The pharmacokinetic characteristics of the tested DG-031 formulation result in an observed mean peak concentrations of 8.8 μg/mL and mean trough concentrations of 4.3 μg/mL. (Table 18) The characteristics of the tested formulation leads to prolonged drug absorption that minimizes the peak to trough fluctuation in DG-031 plasma concentration and LTB4 response.

[2] = Study DG-031-204: adverse events; assay type: in vivo; details: for SAE Description: single patients
Method: (§1) An additional single site, open label study was carried out to obtain biomarker and safety data on additional DG-031 doses (i.e., 1000 mg and 1500 mg). This study examined the safety, tolerability and dose-related effects of DG-031 on inflammatory biomarkers including: LTB4, hsCRP, and MPO. A total of 119 patients with a prior history of CAD and MI were randomized to receive either 1000 mg DG-031 (500 mg BID) or 1500 mg DG-031 (500 mg TID) daily for 4-6 weeks. Treatment with DG-031 in addition to the subject's standard care, medication, and treatment, was prescribed by the patient's cardiologist. A majority of the subjects received statin therapy before, during and after the study. Follow-up assessments were performed 2 weeks after the end of study drug administration.
A total of 5 patients reported 8 serious adverse events (SAE). One death was reported during the trial. All SAE's were consistent with underlying CAD disorders (see Table 16). A total of 88 of 119 patients reported 203 adverse events. The most commonly reported adverse events (and number of cases reported) included: cold (27), headache (13), constipation/diarrhea (6/8), and vertigo (5).

[3] = tested on: LTB4; experiment: Study DG-031-204: serum LTB4; assay type: in vivo, human; details: after 4 weeks
Method: as §1
The biomarkers were analyzed as described in Example 1. Statistical analysis of the data was carried out using a one-sample t-test on change from baseline with a two-sided nominal significance level of 0.050. […]
Serum was collected weekly for determination of LTB4 concentration in response to the treatment with DG-031. […] Stimulated LTB4 effects measured in study DG-031-204, as shown in the raw data set out in Table 12, appear consistent with projections from the exposure-response analysis based on data from studies DG-031-201 and DG-031-203. […]

[4] = Effect of high fat meal on DG-031 pharmacokinetics; assay type: in vivo, human; details: administration with a high fat meal
Method: In the context of treatment of a single individual, a steady state concentration may be expected to fluctuate from day-to-day with variations in the individual's diet, level activity, state of health, co-administration of other medications, and the like. DG-031 is preferably administered with food to improve adsorption. […] Alternatively, DG-031 is administered in the absence of food. The decision whether or not to administer with food may be based on the Cmax and Cmin observed following administration of a novel formulation where the Cmax and Cmin fall within the desired range. […] In this context, the steady state concentration for an individual refers to an average concentration taken at multiple time points, to adjust for such fluctuation.

[5] = Study DG-031-204: serum creatinine; assay type: in vivo, human; details: both 500 mg BID and 500 mg TID groups
Method: as §1
Liver function tests (AST, ALT, GGT) were assessed weekly during study drug administration and two weeks after dosing. […] Serum creatinine (Cr) was measured weekly during study drug administration and two weeks after dosing. In both the 500 mg BID and 500 mg TID treatment groups, mean serum Cr concentrations increased 4-5% relative to baseline levels. At the 2-week follow up visit, mean serum Cr returned to baseline in the cohort treated for 4 weeks, but remained elevated in the group treated for 6 weeks. Creatine kinase (CK) measurements were obtained weekly during study drug administration and two weeks after dosing.

[6] = 119 patients, 500 mg BID or TID, 4-6 weeks

SMILES: O=C(O)[C@@H](c1ccc(OCc2ccc3ccccc3n2)cc1)C1CCCC1 [DG-031, (R)-(+)-alpha-cyclopentyl-4-(2-quinolinylmethoxy)-Benzeneacetic acid]
- Average drug exposure ([1]; 500 mg BID (1000 mg daily)): 7.6 µg/mL
- Reduction in stimulated LTB4 production ([1]; 500 mg BID, 90% prediction interval −45% to −24%): 37%
- Estimated Percent LTB4 Reduction by DG-031 Daily Dose, Mean ([1]; daily dose 250): −8.7%
- Estimated Percent LTB4 Reduction by DG-031 Daily Dose, Mean ([1]; daily dose 500): −19.4%
- Estimated Percent LTB4 Reduction by DG-031 Daily Dose, Mean ([1]; daily dose 750): −28.8%
- Estimated Percent LTB4 Reduction by DG-031 Daily Dose, Mean ([1]; daily dose 1000): −37.1%
- Estimated Percent LTB4 Reduction by DG-031 Daily Dose, Mean ([1]; daily dose 1250): −44.5%
- Estimated Percent LTB4 Reduction by DG-031 Daily Dose, Mean ([1]; daily dose 1500): −50.9%
- SAE Description ([2]; 1000 mg treatment): Cardiac arrest,; also recorded: Subarachnoid hemorrhage; also recorded: Angiography,; also recorded: Repair of Carotid artery; also recorded: Myocardial infarction; also recorded: Unstable angina; also recorded: Myocardial infarction,
- SAE Description ([2]; 1500 mg treatment): Congestive heart failure
- Adverse events reported ([2]; 119 patients): 203
- Cases of cold ([2]; 119 patients): 27
- Cases of constipation ([2]; 119 patients): 6
- Cases of diarrhea ([2]; 119 patients): 8
- Cases of headache ([2]; 119 patients): 13
- Cases of vertigo ([2]; 119 patients): 5
- Deaths reported during the trial ([2]; 119 patients, 500 mg BID or TID): One
- Patients reporting serious adverse events [2, 6]: 5
- Serious adverse events (SAE) reported [2, 6]: 8
- Patients reporting adverse events ([2]; of 119 patients): 88
- Serum LTB4 (% change from baseline) ([3]; 1000 mg (500 mg BID)): −73%
- Serum LTB4 (% change from baseline) ([3]; 1500 mg (500 mg TID)): −50%
- half-life [4]: shorter
- Increase of mean serum Cr concentrations relative to baseline [5]: 4-5%
